# Reference: the supplement of paper PMC11208160
# Assay: recombinant barcode read abundance after kanamycin selection (control-corrected) (log10(CPM+1)); higher = more efficient recombination; sequences stand for … in AGTGCAGAGAAAATCGGCCAGTTTTCTCTGCCTGCAGTCCGCATGCCGT…AGATTTATGCAGCGGACTGCCTTTCTCCCAAAGTGATAAACCGGACAGTATCATGGACCGGTTTTCCCGGTAATCCGTATTTGCAAGGTTGGTTTCACT; site = the 11-nt target
# Method in brief: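 In a pooled screen in E. coli, targets were paired with target-binding loops of the IS621 bridge RNA. Each oligo carried a promoter, a target, a barcode and the first 104 bridge RNA bases driven by J23119, and was Gibson-cloned into a vector holding the remaining 73 bp and a T7-inducible recombinase before co-electroporation with a donor plasmid. Duplicate platings went onto chloramphenicol/ampicillin LB agar as the control or onto chloramphenicol/ampicillin/kanamycin with 0.1 mM IPTG. Recombination efficiency is the averaged, control-corrected count per million of barcodes at recombinant junctions, given as log10(CPM+1).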
# 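Also: IS621 recombinase and bridge RNA in Escherichia coli cells.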
row,Sequence,recombinant barcode read abundance (log10)
1,CTCTACACTTGGGTTCTAACCTGTTGCTG (site CTCTACACTCA),1.13
2,CTCTACTCTTGGGTTCTAACCTGTTGCCT (site CTCTACTCTAG),2.02
3,CTCTACTCTTGGGTTCTAACCTGTTGCCT (site TTCTACTCTAG),0.0366
4,CTCTAGACTTGGGTTCTAACCTGTTGCTG (site CTCAAGACTCC),0.0495
5,CTCTAGACTTGGGTTCTAACCTGTTGCTG (site CTCTAGACTCA),1.82
6,CTCTAGGCTTGGGTTCTAACCTGTTGCCT (site CTCTAGGCTAG),0.0135
7,CTCTAGGCTTGGGTTCTAACCTGTTGCCT (site CTCTCGGCTAG),0.186
8,CTCTAGGCTTGGGTTCTAACCTGTTGCCT (site CTCTGGGCTAG),0.202
9,CTCTAGGCTTGGGTTCTAACCTGTTGCCT (site CTCTTGGCTAG),0.13
10,CTCTCATCTTGGGTTCTAACCTGTTGCCT (site CTCTCATCTAA),0.125
11,CTCTCATCTTGGGTTCTAACCTGTTGCCT (site CTCTCATCTAG),0.149
12,CTCTCGTCTTGGGTTCTAACCTGTTGCCT (site CTCTCGTCTAA),0.11
13,CTCTCGTCTTGGGTTCTAACCTGTTGCCT (site CTCTCGTCTAC),0.119
14,CTCTCGTCTTGGGTTCTAACCTGTTGCCT (site CTCTCGTCTAG),0.944
15,CTCTCGTCTTGGGTTCTAACCTGTTGCCT (site CTCTCGTCTAT),0.0858
16,CTCTCTTCTTGGGTTCTAACCTGTTGCCT (site CTCTCTCCTAG),0.0216

row,Sequence,recombinant barcode read abundance (log10)
1,CTCTCTTCTTGGGTTCTAACCTGTTGCCT (site CTCTCTTCTAG),0.114
2,CTCTGAGCTTGGGTTCTAACCTGTTGCAG (site ACTGCTCCTAG),0.0584
3,CTCTGAGCTTGGGTTCTAACCTGTTGCAG (site CTCTGAGCTCT),0.538
4,CTCTGCTCTTGGGTTCTAACCTGTTGCTT (site CACTCCTCTAA),0.0518
5,CTCTGCTCTTGGGTTCTAACCTGTTGCTT (site CTCTGCTCTAA),0.245
6,CTCTGTCCTTGGGTTCTAACCTGTTGCTG (site CTCTGTCCTCA),0.374
7,CTCTGTCCTTGGGTTCTAACCTGTTGCTG (site GCTGAGACTAC),0.0997
8,CTCTTCCCTTGGGTTCTAACCTGTTGCTT (site CTATTCCCTCA),0.155
9,CTCTTCCCTTGGGTTCTAACCTGTTGCTT (site CTCTTCCCTAA),0.594
10,CTCTTGTCTTGGGTTCTAACCTGTTGCTG (site CTCGTGTCTCT),0.0114
11,CTCTTGTCTTGGGTTCTAACCTGTTGCTG (site CTCTTGTCTCA),1.01
12,CTGAGAGCTTGGGTTCTAACCTGTTGCCT (site CAGAGAGCTAG),0.319
13,CTGAGAGCTTGGGTTCTAACCTGTTGCCT (site CCGAGAGCTAG),0.058
14,CTGAGAGCTTGGGTTCTAACCTGTTGCCT (site CGGAGAGCTAG),0.156
15,CTGAGAGCTTGGGTTCTAACCTGTTGCCT (site CTGAGAGCTAG),1.61
16,CTGAGCCCTTGGGTTCTAACCTGTTGCAT (site CGGAGCCCTCT),0.0964
